Assay results as given in patent EP2140864A2 (H. Lundbeck A/S, priority 2001, dated 2002).
Where two headings read alike, the source gives them in different places.

Tests used:
human GAL1 receptor = molecular target: T1, human GAL1 receptor (Homo sapiens, UniProt P47211); assay: Radioligand binding at cloned human GAL1 receptor
T1 construct: expressed in transfected cells
T1 sequence (P47211 1-349): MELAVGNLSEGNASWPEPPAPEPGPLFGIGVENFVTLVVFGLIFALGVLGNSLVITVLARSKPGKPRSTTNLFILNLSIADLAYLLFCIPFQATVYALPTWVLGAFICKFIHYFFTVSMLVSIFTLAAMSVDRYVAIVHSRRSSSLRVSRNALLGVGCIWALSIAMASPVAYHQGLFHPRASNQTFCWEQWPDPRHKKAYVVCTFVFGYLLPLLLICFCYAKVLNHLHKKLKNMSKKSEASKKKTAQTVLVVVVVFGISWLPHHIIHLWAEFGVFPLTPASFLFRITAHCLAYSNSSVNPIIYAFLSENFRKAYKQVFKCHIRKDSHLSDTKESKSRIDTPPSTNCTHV
Method: The binding properties of the pyrimidines of the present invention were evaluated at the cloned human galanin receptors, GAL1, GAL2, and GAL3, using protocols described herein. […]
(§1) LM(tk-) cells were stably transfected with the human GAL1 or GAL3 receptor. CHO cells were stably transfected with the human GAL2 receptor.
(§2) cDNAs for the human and rat GAL1, and human and rat GAL3 receptors were transfected with a G-418 resistant gene into the mouse fibroblast LM(tk-) cell line by a calcium phosphate transfection method (Cullen, 1987). Stably transfected cells were selected with G-418. Human and rat GAL2 receptors were similarly transfected into CHO cells.
(§3) Membranes were harvested from stably transfected LM(tk-) cells. Adherent cells were washed twice in ice-cold phosphate buffered saline (138 mM NaCl, 8.1 mM Na2HPO4, 2.5 mM KCl, 1.2 mM KH2PO4, 0.9 mM CaCl2, 0.5 mM MgCl2, pH 7.4) and lysed by sonication in ice-cold sonication buffer (20 mM Tris-HCl, 5 mM EDTA, pH 7.7). Large particles and debris were cleared by low speed centrifugation (200 x g, 5 min, 4°C). Membranes were collected from the supernatant fraction by centrifugation (32,000 x g, 18 min, 4°C), washed with ice-cold hypotonic buffer, and collected again by centrifugation (32,000 x g, 18 min, 4°C). The final membrane pellet was resuspended by sonication into a small volume of ice-cold binding buffer (-1 ml for every 5 plates: 10 mM NaCl, 20 mM HEPES, 0.22 mM KH2PO4, 1.26 mM CaCl2, 0.81 mM MgSO4, pH 7.4). Protein concentration was measured by the Bradford method (Bradford, 1976) using Bio-Rad Reagent, with bovine serum albumin as a standard. Membranes were held on ice for up to one hour and used fresh, or flash frozen and stored in liquid nitrogen. Membranes were prepared similarly from CHO cells.
(§4) Galanin Recentors: Binding assays were performed according to the following published methods: human GAL3 (PCT International Publication No. WO 98/15570), human GAL1 (PCT International Publication No. WO 95/2260), human GAL2 (PCT International Publication No. WO 97/26853).
(§5) Binding data were analyzed using nonlinear regression and statistical techniques available in the GraphPAD Prism package (San Diego, CA). Enzymatic assay data were derived from a standard curve of reference compound data.

human GAL2 receptor = molecular target: T2, human GAL2 receptor (Homo sapiens, UniProt O43603); assay: Radioligand binding at cloned human GAL2 receptor
T2 construct: expressed in transfected cells
T2 sequence (O43603 1-387): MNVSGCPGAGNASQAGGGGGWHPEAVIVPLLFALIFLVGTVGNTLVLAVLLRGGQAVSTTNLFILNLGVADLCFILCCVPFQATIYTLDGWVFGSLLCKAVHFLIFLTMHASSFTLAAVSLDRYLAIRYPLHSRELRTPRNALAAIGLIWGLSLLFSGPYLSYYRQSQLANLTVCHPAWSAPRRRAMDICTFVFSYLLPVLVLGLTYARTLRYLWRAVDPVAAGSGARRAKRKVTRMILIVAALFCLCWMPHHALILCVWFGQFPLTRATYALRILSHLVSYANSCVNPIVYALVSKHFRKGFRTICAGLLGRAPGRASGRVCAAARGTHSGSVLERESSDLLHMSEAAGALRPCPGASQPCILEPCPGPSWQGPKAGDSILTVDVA
Method: The binding properties of the pyrimidines of the present invention were evaluated at the cloned human galanin receptors, GAL1, GAL2, and GAL3, using protocols described herein.
The binding properties of the indolones of the present invention were evaluated at the cloned human galanin receptors, GAL1, GAL2, and GAL3, using protocols described herein.
as §1, §2, §3, §4, §5

human GAL3 receptor = molecular target: T3, human GAL3 receptor (Homo sapiens, UniProt O60755); assay: Radioligand binding at cloned human GAL3 receptor
T3 construct: expressed in transfected cells
T3 sequence (O60755 1-368): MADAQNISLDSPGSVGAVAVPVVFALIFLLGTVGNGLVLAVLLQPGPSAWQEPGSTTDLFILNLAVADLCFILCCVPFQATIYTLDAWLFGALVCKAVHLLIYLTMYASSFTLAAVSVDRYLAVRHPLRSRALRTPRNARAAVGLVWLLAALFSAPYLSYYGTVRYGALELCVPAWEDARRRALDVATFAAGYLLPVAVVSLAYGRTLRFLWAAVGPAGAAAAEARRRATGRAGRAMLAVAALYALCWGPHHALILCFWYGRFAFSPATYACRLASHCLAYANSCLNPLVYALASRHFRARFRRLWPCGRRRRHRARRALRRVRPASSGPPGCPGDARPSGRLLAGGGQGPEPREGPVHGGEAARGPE
Outline: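 Compound vehicle, as final assay concentration, was 3% DMSO (indolones) or 1% ethanol/0.09% polypuronic acid F-127 (pyrimidines). Binding measured on fresh or frozen membranes of stably transfected LM(tk-) mouse fibroblasts carrying cloned human GAL3, in pH 7.4 HEPES buffer; values derived by nonlinear regression.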

[1] = pyrimidines, read-out: Ki GalR1
[2] = pyrimidines, read-out: Ki GalR2
[3] = pyrimidines, cloned human receptor; read-out: Ki GalR3
[4] = indolones, cloned human receptor; read-out: Ki GalR3

Structure (SMILES)	Ki (human GAL1 receptor; [1]) [nM]	Ki (human GAL2 receptor; [2]) [nM]	Ki (human GAL3 receptor; [3]) [nM]	further results
CC1CCC(Nc2cc(N(C)C)nc(Nc3ccccc3)n2)CC1 (stereo not drawn) [Example 67]	> 5000	> 5000	752	
Cc1ccc(Nc2cc(N(C)C)nc(N3CCOCC3c3ccccc3)n2)cc1 (stereo not drawn) [Example 82]	> 5000	> 5000	232	
Cc1cc(Nc2cc(N(C)C)nc(Nc3ccccc3)n2)ccc1Cl [Example 61]	> 5000	> 5000	753	
Cc1ccc(Nc2cc(N(C)C)nc(N3CCc4ccccc43)n2)cc1 [Example 75]	1460	2460	144	
CN(C)c1cc(NC2CC3CCC2C3)nc(Nc2ccccc2)n1 (stereo not drawn) [Example 69]	> 5000	> 5000	417	
CC(C)N1C(=O)C(=Nc2ccc(Br)cc2)c2ccccc21 [Example 107, 3-[(4-BROMOPHENYL)IMINO]-1-ISOPROPYL-1,3-DIHYDRO-2H-INDOL-2-ONE]				Ki (human GAL1 receptor; indolones, read-out: Ki GalR1): > 10000 nM; Ki (human GAL2 receptor; indolones, read-out: Ki GalR2): > 10000 nM; Ki (human GAL3 receptor; [4]): 126 nM
Cc1ccc(Nc2cc(N3CCCCC3)nc(N3CCN(c4c(C)cccc4C)CC3)n2)cc1 [Example 27]	2690	272	63	
Cc1cc(C)cc(N=C2C(=O)N(c3ccccc3)c3ccccc32)c1 [Example 104]				Ki (human GAL1 receptor; indolones, read-out: Ki GalR1): > 10000 nM; Ki (human GAL2 receptor; indolones, read-out: Ki GalR2): > 10000 nM; Ki (human GAL3 receptor; [4]): 143 nM
Cc1ccc(Nc2cc(N3CCCCC3)nc(N(C)C(C)Cc3c[nH]c4ccccc34)n2)cc1 (stereo not drawn) [Example 21]	4790	1100	49	
Cc1ccc(Nc2cc(N3CCCCC3)nc(N(C)C3CCCCC3)n2)cc1 [Example 1]	668	188	35	
Cc1ccc(Nc2cc(N3CCCCC3)nc(N3CCO[C@@H](c4ccccc4)[C@H]3C)n2)cc1 [Example 48]	> 5000	4230	120	
C=CCN1C(=O)C(=Nc2cc(Cl)cc(Cl)c2)c2ccccc21 [Example 106, 1-ALLYL-3-[(3,5-DICHLOROPHENYL)IMINO]-1,3-DIHYDRO-2H-INDOL-2-ONE]				Ki (human GAL1 receptor; indolones, read-out: Ki GalR1): > 10000 nM; Ki (human GAL2 receptor; indolones, read-out: Ki GalR2): > 10000 nM; Ki (human GAL3 receptor; [4]): 62 nM
Cc1ccc(Nc2cc(N3CCCCC3)nc(N3CCOC(c4ccccc4)C3)n2)cc1 (stereo not drawn) [Example 47]	> 5000	3010	115	
Cc1ccc(Nc2cc(N3CCCCC3)nc(N(C)c3ccc(C)cc3)n2)cc1 [Example 7]	1110	775	177	
COc1ccc(N=C2C(=O)N(c3ccccc3)c3ccccc32)cc1 [Example 102, 3-[(4-METHOXYPHENYL)IMINO]-1-PHENYL-1,3-DIHYDRO-2H-INDOL-2-ONE]				Ki (human GAL1 receptor; indolones, read-out: Ki GalR1): > 10000 nM; Ki (human GAL2 receptor; indolones, read-out: Ki GalR2): > 10000 nM; Ki (human GAL3 receptor; [4]): 429 nM
Cc1ccc(Nc2cc(N3CCCCC3)nc(N3CCCC3)n2)cc1 [Example 38]	2900	516	320	
COc1ccc(N2CCN(c3nc(Nc4ccc(C)cc4)cc(N4CCCCC4)n3)CC2)c(OC)c1 [Example 28]				Ki (human GAL1 receptor; read-out: Ki GalR1, pyrimidines): > 5000 nM; Ki (human GAL2 receptor; read-out: Ki GalR2, pyrimidines): > 5000 nM; Ki (human GAL3 receptor; read-out: Ki GalR3; pyrimidines, cloned human receptor): 270 nM
Cc1ccc(Nc2cc(N3CCCCC3)nc(NC(C)Cc3c[nH]c4ccccc34)n2)cc1 (stereo not drawn) [Example 20]	> 5000	> 5000	164	

Structure (SMILES)	Ki (human GAL1 receptor; [1]) [nM]	Ki (human GAL2 receptor; [2]) [nM]	Ki (human GAL3 receptor; [3]) [nM]	further results
Cc1ccc(Nc2cc(N(C)C)nc(N3CCOC(c4ccccc4)C3)n2)cc1 (stereo not drawn) [Example 83]	> 5000	> 5000	160	
Cc1ccc(Nc2cc(N3CCN(c4ncccc4C(F)(F)F)CC3)nc(N3CCCCC3)n2)cc1 [Example 89]	1120	1270	105	
COCC1CCCCN1c1cc(Nc2ccc(C)cc2)nc(N2CCN(c3ncccc3C(F)(F)F)CC2)n1 (stereo not drawn) [Example 90]	> 5000	2460	105	
Cc1cccc(N=C2C(=O)N(c3ccccc3)c3ccccc32)c1 [Example 93]				Ki (human GAL1 receptor; indolones, read-out: Ki GalR1): > 10000 nM; Ki (human GAL2 receptor; indolones, read-out: Ki GalR2): > 10000 nM; Ki (human GAL3 receptor; [4]): 171 nM
O=C1C(=Nc2ccc(Oc3ccccc3)cc2)c2ccccc2N1c1ccccc1 [Example 100, 3-[(4-PHENOXYPHENYL)IMINO]-1-PHENYL-1,3-DIHYDRO-2H-INDOL-2-ONE]				Ki (human GAL1 receptor; indolones, read-out: Ki GalR1): > 10000 nM; Ki (human GAL2 receptor; indolones, read-out: Ki GalR2): > 10000 nM; Ki (human GAL3 receptor; [4]): 90 nM
CN(C)c1cc(Nc2ccc(Cl)c(Cl)c2)nc(N(C)CCc2c[nH]c3ccccc23)n1 [Example 78]	4940	1860	41	
CN(C)c1cc(Nc2ccc(Cl)cc2)nc(Nc2ccccc2)n1 [Example 58]	> 5000	> 5000	783	
COc1ccccc1N=C1C(=O)N(c2ccccc2)c2ccccc21 [Example 91, 3-[(2-METHOXYPHENYL)IMINO]-1-PHENYL-1,3-DIHYDRO-2H-INDOL-2-ONE]				Ki (human GAL1 receptor; indolones, read-out: Ki GalR1): > 10000 nM; Ki (human GAL2 receptor; indolones, read-out: Ki GalR2): > 10000 nM; Ki (human GAL3 receptor; [4]): 527 nM
Cc1ccc(N=C2C(=O)N(c3ccccc3)c3ccccc32)cc1 [Example 96]				Ki (human GAL1 receptor; indolones, read-out: Ki GalR1): > 10000 nM; Ki (human GAL2 receptor; indolones, read-out: Ki GalR2): > 10000 nM; Ki (human GAL3 receptor; [4]): 111 nM
Cc1ccc(Nc2cc(N(C)C)nc(NCCc3c[nH]c4ccccc34)n2)cc1 [Example 76]	3800	1660	392	
CN(C)c1cc(NC2CCC(C(C)(C)C)CC2)nc(Nc2ccccc2)n1 (stereo not drawn) [Example 68]	> 5000	2150	164	
CCN(CCc1c[nH]c2ccccc12)c1nc(Nc2ccc(C)cc2)cc(N2CCCCC2)n1 [Example 18]	3590	543	40	
Cc1ccc(Nc2cc(N(C)C)nc(Nc3ccccc3)n2)cc1Cl [Example 62]	> 5000	> 5000	736	
Cc1ccc(Nc2cc(N3CCCCC3)nc(N3CCc4ccccc4C3)n2)cc1 [Example 41]	2130	840	151	
CCOc1ccc(N=C2C(=O)N(c3ccccc3)c3ccccc32)cc1 [Example 101, 3-[(4-ETHOXYPHENYL)IMINO]-1-PHENYL-1,3-DIHYDRO-2H-INDOL-2-ONE]				Ki (human GAL1 receptor; indolones, read-out: Ki GalR1): > 10000 nM; Ki (human GAL2 receptor; indolones, read-out: Ki GalR2): > 10000 nM; Ki (human GAL3 receptor; [4]): 305 nM
COCCN(c1nc(Nc2ccc(C)cc2)cc(N2CCCCC2)n1)C1CCCCC1 [Example 2]	2820	562	26	
CN(CCc1c[nH]c2ccccc12)c1nc(Nc2ccc3ccccc3c2)cc(N2CCCCC2)n1 [Example 13]	2070	1410	81	
